Results taken from US20200163334A1, “INSECT REPELLENT” (FMC Corporation, priority 2016, published 2020).

Legend:
[1] = system: Red imported fire ant (Solenopsis invicta); experiment: Fire ant repellency, baited plates near mounds (Example 6); format: in vivo; details: separate trial; about 100 mg per plate, within 4 feet of mounds
Source text: Formulation A was poured into a plastic spray bottle and was sprayed onto 20, eight inch paper plates, one squeeze of the pump trigger per plate. […] Ten treated plates were placed randomly on the ground on a farm in Sparks, Ga., USA and ten control (untreated) plates were placed on the ground about 3 feet from the treated plates. Ten treated plates were placed about 4 feet from active Red imported fire ant mounds and ten control plates were placed near the same mounds no closer than 3 feet from the treated plates. Each plate received approximately 15 mL of an aqueous 25% honey solution.
Fifty percent of the control plates had active fire ant feeding within 15 minutes and 100% of the control plates had active fire ant feeding within 30 minutes.

insects = details: Table 1 of U.S. Pat. No. 6,958,146, 7,867,479 and 8,092,790; cited from earlier work
[2] = system: house flies (Musca domesticae); details: U.S. Pat. No. 6,958,146, 7,867,479 and 8,092,790; cited from earlier work

## COC(=O)c1ccccc1N [methyl anthranilate]
[1]
  deterrence of fire ant feeding: did not deter fire ants from feeding
insects
  insects on sticky traps: quickly became covered with hundreds of insects
[2]
  house fly response: repelled
